Article PMC9330179 (ACS Omega, 2022)

Assays:
Assay type in all cases: biochemical
cathepsin B [1] = biological target: T1, cathepsin B (Homo sapiens, UniProt P07858)
cathepsin K = biological target: T2, cathepsin K (Homo sapiens, UniProt P43235); assay: protease activity at a single dose; settings: read-out: GER-24 (50 μM) % control activity (100%, no inhibitor)
T2 sequence (P43235 115-329): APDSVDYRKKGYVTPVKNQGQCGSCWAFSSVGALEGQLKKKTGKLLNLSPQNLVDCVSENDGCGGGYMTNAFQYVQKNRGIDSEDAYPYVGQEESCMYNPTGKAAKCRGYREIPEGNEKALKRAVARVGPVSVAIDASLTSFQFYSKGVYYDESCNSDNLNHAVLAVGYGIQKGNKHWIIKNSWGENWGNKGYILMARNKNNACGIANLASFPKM

cathepsin H = cathepsin H (Homo sapiens, UniProt P09668); assay: protease activity at a single dose; settings: read-out: GER-24 (50 μM) % control activity (100%, no inhibitor)
cathepsin H, sequence (P09668 116-335, other chains not shown): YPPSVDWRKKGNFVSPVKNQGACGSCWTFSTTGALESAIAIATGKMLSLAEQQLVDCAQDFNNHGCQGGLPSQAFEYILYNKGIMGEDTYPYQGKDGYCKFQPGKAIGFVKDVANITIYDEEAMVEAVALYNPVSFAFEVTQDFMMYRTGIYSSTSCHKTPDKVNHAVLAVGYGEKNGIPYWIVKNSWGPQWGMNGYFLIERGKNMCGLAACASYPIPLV

cathepsin S = cathepsin S (Homo sapiens, UniProt P25774); assay: protease activity at a single dose; settings: read-out: GER-24 (50 μM) % control activity (100%, no inhibitor)
cathepsin S, sequence (P25774 115-331): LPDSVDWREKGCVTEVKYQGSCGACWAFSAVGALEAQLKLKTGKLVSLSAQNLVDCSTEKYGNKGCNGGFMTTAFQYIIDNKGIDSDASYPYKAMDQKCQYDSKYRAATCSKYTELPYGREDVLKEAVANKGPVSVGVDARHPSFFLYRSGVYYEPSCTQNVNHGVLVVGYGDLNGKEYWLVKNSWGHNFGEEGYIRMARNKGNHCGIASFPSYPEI

cathepsin B [2] = biological target: T1, cathepsin B; assay: fluorogenic Z-Glu-Lys-AMC assay at pH […], IC50
cathepsin V = cathepsin V (Homo sapiens, UniProt O60911); assay: protease activity at a single dose; settings: read-out: GER-24 (50 μM) % control activity (100%, no inhibitor)
cathepsin V, sequence (O60911 114-334): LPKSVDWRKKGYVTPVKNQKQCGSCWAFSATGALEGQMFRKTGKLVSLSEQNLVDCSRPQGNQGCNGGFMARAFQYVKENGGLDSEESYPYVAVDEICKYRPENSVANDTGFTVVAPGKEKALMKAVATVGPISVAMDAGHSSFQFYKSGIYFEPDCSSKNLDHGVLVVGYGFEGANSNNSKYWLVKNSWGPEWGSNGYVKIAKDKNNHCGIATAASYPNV

Row | Ki (cathepsin B [1]) [µM] | remaining activity at 50 µM (cathepsin K) [%] | remaining activity at 50 µM (cathepsin H) [%] | remaining activity at 50 µM (cathepsin S) [%] | IC50 (cathepsin B [2]) [µM] | remaining activity at 50 µM (cathepsin V) [%] | Compound
1 | 1.4 |  |  |  |  |  | O=S(=O)(O)Oc1ccc(Oc2cc(Br)c(Oc3ccc(OS(=O)(=O)O)c(Oc4ccc(Br)cc4Br)c3Br)c(Oc3ccc(Br)cc3Br)c2)cc1Br [GER-12, Crossbyanol B]
2 |  | 7 | 21 | 0 | 16 | 17 | CCCCC/C=C\C/C=C\C=C/C#CCCCC(=O)O [GER-24, (7Z,9Z,12Z)-octadeca-7,9,12-trien-5-ynoic acid]
